# What was measured:
# [1] = molecular target: T1, Lysine-specific histone demethylase 1A (Homo sapiens, UniProt O60341); assay: Inhibition of full length human KDM1A expressed in Escherichia coli using biotin-H3K4me1 as substrate incubated for 1 hr by TR-FRET assay
# [2] = molecular target: T1, Lysine-specific histone demethylase 1A; assay: Inhibition of KDM1A in human THP1 cells assessed as inhibition of CD11b expressing cells incubated for 4 days by DAPI staining based flow cytometry; format: cell-based, THP-1
# [3] = molecular target: T1, Lysine-specific histone demethylase 1A; assay: Inhibition of recombinant human N-terminal GST-tagged KDM1A expressed in Escherichia coli using H3K4me2 as substrate preincubated for 15 mins followed by substrate addition measured after 1 hr by peroxidase coupled enzyme assay
# [4] = molecular target: T2, Amine oxidase [flavin-containing] A (Homo sapiens, UniProt P21397); assay: Inhibition of human recombinant MAO-A using 3-(2-Aminophenyl)-3-oxopropanamine as substrate preincubated for 15 mins followed by substrate addition measured after 1 hr by fluorescence microplate reader analysis
# T2 sequence (P21397 whole entry): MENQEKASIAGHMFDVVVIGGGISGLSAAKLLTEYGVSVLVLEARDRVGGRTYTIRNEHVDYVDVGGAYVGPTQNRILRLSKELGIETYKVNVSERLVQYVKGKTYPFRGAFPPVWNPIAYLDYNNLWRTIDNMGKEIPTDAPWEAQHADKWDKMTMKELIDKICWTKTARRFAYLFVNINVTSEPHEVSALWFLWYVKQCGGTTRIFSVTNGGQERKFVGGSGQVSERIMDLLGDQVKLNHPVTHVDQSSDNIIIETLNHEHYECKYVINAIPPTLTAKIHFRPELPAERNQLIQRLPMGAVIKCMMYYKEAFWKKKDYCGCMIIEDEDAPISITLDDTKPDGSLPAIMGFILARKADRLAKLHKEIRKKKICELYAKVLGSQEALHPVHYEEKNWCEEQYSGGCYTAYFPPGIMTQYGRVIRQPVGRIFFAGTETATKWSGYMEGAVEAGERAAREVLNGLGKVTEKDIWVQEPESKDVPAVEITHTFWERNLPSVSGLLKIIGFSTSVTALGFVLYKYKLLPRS
# [5] = molecular target: T3, Amine oxidase [flavin-containing] B (Homo sapiens, UniProt P27338); assay: Inhibition of human recombinant MAO-B using 3-(2-Aminophenyl)-3-oxopropanamine as substrate preincubated for 15 mins followed by substrate addition measured after 1 hr by fluorescence microplate reader analysis
# T3 sequence (P27338 whole entry): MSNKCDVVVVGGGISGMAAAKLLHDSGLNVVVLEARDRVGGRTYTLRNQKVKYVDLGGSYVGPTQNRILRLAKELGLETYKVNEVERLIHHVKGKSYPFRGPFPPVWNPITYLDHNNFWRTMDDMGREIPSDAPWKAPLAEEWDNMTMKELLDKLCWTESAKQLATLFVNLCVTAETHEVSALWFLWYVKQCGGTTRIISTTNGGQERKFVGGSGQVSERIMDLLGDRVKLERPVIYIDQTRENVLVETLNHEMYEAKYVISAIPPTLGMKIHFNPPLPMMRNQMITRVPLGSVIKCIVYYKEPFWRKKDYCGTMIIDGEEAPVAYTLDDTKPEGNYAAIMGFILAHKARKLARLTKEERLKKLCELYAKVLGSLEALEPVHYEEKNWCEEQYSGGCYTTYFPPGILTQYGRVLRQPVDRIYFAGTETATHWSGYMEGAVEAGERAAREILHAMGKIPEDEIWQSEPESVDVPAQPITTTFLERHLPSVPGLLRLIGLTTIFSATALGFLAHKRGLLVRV
# [6] = molecular target: T4, Lysine-specific demethylase 4C (Homo sapiens, UniProt Q9H3R0); assay: Inhibition of KDM4C (1 to 350 residues) (unknown origin) expressed in Escherichia coli using […] as substrate
# T4 sequence (Q9H3R0 whole entry): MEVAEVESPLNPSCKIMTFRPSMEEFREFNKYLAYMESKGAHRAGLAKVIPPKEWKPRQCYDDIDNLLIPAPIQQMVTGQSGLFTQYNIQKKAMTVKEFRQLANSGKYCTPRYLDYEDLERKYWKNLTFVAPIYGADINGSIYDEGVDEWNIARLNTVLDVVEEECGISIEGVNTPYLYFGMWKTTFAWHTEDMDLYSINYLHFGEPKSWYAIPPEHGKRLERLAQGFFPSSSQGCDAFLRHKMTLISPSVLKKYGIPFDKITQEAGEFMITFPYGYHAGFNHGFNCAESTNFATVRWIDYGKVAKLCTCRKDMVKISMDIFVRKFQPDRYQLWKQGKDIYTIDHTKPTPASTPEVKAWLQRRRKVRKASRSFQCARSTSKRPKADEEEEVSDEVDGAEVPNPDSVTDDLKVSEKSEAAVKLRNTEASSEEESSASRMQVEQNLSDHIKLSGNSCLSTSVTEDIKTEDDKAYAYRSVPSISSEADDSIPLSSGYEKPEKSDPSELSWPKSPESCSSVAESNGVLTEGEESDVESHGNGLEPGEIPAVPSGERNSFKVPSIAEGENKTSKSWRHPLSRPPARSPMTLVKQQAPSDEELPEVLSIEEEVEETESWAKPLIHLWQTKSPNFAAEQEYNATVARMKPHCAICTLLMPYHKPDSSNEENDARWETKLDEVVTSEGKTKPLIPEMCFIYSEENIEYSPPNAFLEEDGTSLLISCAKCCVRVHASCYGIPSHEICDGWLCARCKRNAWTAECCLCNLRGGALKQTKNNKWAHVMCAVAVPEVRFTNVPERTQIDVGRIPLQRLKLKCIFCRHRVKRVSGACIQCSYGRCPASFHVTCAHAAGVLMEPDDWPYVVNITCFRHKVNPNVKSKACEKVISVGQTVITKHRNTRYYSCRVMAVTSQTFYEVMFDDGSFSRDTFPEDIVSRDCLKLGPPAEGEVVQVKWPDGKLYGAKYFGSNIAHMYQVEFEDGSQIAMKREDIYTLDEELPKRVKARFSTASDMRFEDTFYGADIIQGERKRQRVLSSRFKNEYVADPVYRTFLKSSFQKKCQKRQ
# [7] = Antiproliferative activity against human PC3 cells assessed as reduction in cell viability by MTT assay; format: functional, cell-based; conditions: PC-3
# LNCaP = assay: Antiproliferative activity against human LNCAP cells assessed as reduction in cell viability by MTT assay; format: functional, cell-based
# [8] = Antiproliferative activity against human VCaP cells assessed as reduction in cell viability by MTT assay; format: functional, cell-based
# [9] = molecular target: T5, Lysine-specific demethylase 4A (Homo sapiens, UniProt O75164)
# T5 sequence (O75164 whole entry): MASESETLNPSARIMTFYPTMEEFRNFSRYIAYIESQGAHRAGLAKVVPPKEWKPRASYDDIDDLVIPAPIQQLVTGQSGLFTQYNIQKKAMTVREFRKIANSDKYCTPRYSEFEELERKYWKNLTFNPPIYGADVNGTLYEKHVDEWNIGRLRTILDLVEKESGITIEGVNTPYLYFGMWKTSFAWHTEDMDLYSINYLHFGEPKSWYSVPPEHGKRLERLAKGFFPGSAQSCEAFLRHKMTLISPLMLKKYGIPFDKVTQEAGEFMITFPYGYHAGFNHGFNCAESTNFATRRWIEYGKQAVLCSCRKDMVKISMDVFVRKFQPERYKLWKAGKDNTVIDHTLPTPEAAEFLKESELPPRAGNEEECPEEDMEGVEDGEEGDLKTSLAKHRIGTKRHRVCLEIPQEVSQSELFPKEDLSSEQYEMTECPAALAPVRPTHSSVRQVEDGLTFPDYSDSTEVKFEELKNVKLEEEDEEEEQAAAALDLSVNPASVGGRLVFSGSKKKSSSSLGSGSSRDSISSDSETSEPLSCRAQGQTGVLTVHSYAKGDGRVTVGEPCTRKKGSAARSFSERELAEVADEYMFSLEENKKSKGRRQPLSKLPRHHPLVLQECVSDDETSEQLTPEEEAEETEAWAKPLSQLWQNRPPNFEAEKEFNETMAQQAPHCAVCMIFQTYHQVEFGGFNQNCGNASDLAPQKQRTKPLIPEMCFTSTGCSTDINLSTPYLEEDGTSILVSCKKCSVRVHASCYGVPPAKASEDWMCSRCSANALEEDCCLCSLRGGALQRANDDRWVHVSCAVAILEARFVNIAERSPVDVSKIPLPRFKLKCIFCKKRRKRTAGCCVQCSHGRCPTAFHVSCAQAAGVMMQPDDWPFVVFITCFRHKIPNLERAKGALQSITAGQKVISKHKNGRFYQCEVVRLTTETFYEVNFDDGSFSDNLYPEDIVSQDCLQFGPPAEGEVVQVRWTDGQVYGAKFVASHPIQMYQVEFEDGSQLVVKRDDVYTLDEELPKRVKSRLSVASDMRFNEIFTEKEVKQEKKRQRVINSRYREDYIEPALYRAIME
# [10] = molecular target: T6, Lysine-specific demethylase 5A (Homo sapiens, UniProt P29375)
# [11] = molecular target: T7, Lysine-specific demethylase 4B (Homo sapiens, UniProt O94953); assay: biochemical
# T7 sequence (O94953 whole entry): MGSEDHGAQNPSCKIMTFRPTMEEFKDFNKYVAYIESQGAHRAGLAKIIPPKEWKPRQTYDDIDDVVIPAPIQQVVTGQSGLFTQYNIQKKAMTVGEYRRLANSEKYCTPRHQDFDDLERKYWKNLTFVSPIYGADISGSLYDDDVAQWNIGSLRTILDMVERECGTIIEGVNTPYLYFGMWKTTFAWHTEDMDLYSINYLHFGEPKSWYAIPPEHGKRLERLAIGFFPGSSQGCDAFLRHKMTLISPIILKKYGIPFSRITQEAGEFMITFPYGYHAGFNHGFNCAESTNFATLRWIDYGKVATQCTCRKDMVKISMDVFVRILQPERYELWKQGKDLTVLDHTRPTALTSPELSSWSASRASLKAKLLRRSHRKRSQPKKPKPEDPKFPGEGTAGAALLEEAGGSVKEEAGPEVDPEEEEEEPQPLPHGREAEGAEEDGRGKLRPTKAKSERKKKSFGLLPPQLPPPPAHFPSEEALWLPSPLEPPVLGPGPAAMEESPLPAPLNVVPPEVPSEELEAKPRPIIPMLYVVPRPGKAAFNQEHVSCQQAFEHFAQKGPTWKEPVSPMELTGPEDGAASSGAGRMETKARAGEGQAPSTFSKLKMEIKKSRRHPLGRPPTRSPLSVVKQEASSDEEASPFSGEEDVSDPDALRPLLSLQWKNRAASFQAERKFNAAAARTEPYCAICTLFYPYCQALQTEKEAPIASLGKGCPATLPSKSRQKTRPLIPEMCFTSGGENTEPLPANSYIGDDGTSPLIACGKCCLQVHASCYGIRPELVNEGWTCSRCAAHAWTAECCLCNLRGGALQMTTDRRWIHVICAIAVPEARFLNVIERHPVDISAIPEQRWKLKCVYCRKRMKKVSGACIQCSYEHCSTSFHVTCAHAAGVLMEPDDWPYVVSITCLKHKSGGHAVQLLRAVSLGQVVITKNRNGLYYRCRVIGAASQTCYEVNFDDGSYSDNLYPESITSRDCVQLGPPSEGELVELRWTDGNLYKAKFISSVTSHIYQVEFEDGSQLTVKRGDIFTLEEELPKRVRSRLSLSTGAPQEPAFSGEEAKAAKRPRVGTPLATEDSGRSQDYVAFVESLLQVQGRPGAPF
# [12] = molecular target: T1, Lysine-specific histone demethylase 1A; assay: Inhibition of human recombinant KDM1A expressed in Escherichia coli using H3K4me peptide substrate preincubated for 15 mins followed substrate addition measured after 12 mins by peroxidase coupled enzyme assay
# [13] = molecular target: T2, Amine oxidase [flavin-containing] A; assay: Inhibition of human recombinant MAO-A expressed in Pichia pastoris preincubated for 15 mins followed by substrate addition measured after 30 mins by MAO-Glo assay
# [14] = molecular target: T3, Amine oxidase [flavin-containing] B; assay: Inhibition of human recombinant MAO-B expressed in Pichia pastoris preincubated for 15 mins followed by substrate addition measured after 30 mins by MAO-Glo assay
# HeLa = assay: Antiproliferative activity against human HeLa cells assessed as reduction in cell viability after 72 hrs by MTT assay; format: functional, cell-based
# MDA-MB-231 = assay: Antiproliferative activity against human MDA-MB-231 cells assessed as reduction in cell viability after 72 hrs by MTT assay; format: functional, cell-based; conditions: MDA-MB-231, 72 h
# [15] = molecular target: T1, Lysine-specific histone demethylase 1A
# [16] = molecular target: T5, Lysine-specific demethylase 4A; remark: listed apart in the source
# [17] = molecular target: T5, Lysine-specific demethylase 4A; remark: listed apart in the source
# [18] = molecular target: T6, Lysine-specific demethylase 5A; set-up: species or system Sf9
# [19] = molecular target: Lysine-specific demethylase 6B (Homo sapiens, UniProt O15054); assay: Inhibition of human C-terminal FLAG-tagged KDM6B (1043 residues) expressed in baculovirus infected sf9 cells using H3K27me3 (21 to 44 residues) substrate preincubated for 10 mins followed by substrate addition measured after 45 mins by TR-FRET assay
# [20] = molecular target: T5, Lysine-specific demethylase 4A; remark: listed apart in the source
# T6 sequence (P29375 whole entry): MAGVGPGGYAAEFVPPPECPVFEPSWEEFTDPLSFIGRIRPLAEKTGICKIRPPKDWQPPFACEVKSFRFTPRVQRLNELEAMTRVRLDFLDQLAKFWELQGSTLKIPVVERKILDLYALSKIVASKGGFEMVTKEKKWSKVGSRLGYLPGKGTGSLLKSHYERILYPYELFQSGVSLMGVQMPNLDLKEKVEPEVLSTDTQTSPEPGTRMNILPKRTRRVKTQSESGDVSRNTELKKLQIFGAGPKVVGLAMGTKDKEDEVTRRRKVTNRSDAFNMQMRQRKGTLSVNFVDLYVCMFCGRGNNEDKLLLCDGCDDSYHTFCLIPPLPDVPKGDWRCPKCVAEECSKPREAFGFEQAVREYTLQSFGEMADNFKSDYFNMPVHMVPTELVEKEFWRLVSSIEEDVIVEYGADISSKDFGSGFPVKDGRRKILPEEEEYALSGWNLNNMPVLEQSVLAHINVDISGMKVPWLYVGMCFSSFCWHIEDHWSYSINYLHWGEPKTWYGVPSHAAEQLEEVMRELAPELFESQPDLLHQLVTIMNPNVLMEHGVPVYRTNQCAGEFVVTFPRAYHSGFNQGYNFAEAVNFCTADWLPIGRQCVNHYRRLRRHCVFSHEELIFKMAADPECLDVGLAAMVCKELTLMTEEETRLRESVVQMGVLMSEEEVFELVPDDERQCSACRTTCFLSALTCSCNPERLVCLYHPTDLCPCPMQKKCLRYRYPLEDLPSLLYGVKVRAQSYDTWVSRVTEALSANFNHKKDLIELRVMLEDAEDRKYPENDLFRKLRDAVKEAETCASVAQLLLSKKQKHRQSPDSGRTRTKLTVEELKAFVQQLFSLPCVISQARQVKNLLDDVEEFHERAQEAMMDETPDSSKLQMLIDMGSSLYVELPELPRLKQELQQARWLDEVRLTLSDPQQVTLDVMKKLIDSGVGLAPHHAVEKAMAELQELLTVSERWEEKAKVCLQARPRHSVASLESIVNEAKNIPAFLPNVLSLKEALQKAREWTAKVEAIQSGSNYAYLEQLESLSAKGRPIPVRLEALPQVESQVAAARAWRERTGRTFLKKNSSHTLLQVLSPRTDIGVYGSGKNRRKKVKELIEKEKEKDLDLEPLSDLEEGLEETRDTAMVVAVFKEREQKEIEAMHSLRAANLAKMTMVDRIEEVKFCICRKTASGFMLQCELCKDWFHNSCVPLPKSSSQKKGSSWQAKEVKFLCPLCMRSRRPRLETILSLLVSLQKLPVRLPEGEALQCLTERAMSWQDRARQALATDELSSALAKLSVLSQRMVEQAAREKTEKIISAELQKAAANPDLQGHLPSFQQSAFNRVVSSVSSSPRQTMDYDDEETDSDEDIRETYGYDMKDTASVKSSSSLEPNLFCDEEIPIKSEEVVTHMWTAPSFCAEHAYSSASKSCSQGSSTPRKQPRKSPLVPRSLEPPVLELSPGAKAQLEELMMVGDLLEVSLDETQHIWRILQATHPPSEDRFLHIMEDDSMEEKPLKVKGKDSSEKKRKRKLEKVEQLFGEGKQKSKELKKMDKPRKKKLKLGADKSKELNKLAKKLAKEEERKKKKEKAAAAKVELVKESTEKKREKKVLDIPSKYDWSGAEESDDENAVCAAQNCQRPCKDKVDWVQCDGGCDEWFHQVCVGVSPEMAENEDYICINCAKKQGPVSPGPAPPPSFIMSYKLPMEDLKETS
# Sequence of Lysine-specific demethylase 6B (O15054 whole entry, the tested form may be a part): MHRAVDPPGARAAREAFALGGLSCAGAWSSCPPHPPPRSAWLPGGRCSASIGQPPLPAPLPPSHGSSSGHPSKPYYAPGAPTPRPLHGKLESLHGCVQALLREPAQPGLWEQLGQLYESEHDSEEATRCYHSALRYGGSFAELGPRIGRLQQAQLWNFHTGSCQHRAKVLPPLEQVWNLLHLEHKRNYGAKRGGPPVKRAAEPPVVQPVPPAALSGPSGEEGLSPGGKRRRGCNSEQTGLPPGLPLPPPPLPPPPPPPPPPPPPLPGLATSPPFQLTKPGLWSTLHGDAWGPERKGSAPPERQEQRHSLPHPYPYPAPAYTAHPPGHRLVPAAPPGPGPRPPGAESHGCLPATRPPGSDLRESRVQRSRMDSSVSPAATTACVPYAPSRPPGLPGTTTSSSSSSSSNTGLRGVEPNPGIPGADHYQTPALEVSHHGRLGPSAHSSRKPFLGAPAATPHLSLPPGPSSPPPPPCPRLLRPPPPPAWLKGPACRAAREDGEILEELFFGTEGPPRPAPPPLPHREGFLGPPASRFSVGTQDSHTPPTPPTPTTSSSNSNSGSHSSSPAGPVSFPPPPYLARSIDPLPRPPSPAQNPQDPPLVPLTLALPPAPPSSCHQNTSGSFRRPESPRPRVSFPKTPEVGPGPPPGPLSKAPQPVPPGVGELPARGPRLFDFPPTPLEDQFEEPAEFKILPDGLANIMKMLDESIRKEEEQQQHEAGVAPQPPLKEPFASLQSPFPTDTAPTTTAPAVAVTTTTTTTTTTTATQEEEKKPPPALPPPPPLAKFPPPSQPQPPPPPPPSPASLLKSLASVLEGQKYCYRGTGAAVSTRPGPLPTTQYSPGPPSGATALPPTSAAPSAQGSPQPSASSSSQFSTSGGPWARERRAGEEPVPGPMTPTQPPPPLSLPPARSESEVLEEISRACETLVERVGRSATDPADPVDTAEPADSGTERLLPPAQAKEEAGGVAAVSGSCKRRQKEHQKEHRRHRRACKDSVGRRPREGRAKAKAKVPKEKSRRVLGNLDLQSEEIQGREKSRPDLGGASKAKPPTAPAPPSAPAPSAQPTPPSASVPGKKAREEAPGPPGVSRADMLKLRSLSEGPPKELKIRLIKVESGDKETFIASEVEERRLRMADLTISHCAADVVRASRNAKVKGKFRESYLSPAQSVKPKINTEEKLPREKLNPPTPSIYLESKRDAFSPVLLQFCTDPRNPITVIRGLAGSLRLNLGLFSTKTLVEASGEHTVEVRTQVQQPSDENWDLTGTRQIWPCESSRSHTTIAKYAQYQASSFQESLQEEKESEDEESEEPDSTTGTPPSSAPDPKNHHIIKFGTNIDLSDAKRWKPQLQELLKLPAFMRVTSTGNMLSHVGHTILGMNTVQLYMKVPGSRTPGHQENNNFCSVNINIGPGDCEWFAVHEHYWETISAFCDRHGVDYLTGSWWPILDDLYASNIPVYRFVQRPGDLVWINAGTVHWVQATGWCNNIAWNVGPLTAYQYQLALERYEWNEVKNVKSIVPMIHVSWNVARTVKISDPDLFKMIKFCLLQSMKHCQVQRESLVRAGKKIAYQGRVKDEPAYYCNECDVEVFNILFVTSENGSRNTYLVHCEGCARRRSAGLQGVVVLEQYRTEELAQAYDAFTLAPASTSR
structure (smiles),measurement,setting,value
Cc1ccc(-c2cnc(NC[C@H]3CCNC3)nc2-c2ccc(C#N)cc2)cc1,IC50,[1],< 0.01 µM
same,IC50,[2],< 0.01 µM
CC(C)S(=O)(=O)Nc1cccc(-c2ccc([C@H]3C[C@@H]3N)cc2)c1,IC50,[3],0.07 µM
same,IC50,[4],> 1 µM
same,IC50,[5],> 10 µM
O=C(NCCCc1ccccc1)c1cccc(-c2cc(O)c3ncccc3c2)c1,IC50,[6],< 1 µM
same,IC50,[7],0.04 µM
same,IC50,LNCaP,< 1 µM
same,IC50,[8],< 1 µM
same,IC50,[9],< 1 µM
same,IC50,[10],> 10 µM
same,IC50,[11],0.01 µM
CN1CCN(c2ccc(C(=O)Nc3ccc([C@@H]4C[C@]4(N)CCc4ccccc4)cc3)cc2)CC1 (racemic),IC50,[12],< 0.1 µM
same,IC50,[13],> 10 µM
same,IC50,[14],> 10 µM
CSCCc1nc(-c2cc(N)ccc2Cl)oc1C,IC50,HeLa,0.0012 µM
same,IC50,MDA-MB-231,0.0012 µM
same,IC50,[15],10.1 µM
NNC(=O)Cc1nnn[nH]1,IC50,[16],46.6 µM
same,IC50,[17],2.4 µM
same,IC50,[18],10.4 µM
same,IC50,[19],98 µM
same,Ki,[20],1.94 µM

# Reference: ChEMBL document CHEMBL3784917, “Recent Progress in Histone Demethylase Inhibitors” (J Med Chem, 2016)
